Assay results published in patent publication US10774074B2, “2-(1-heteroarylpiperazin-4-yl)methyl-1,4-benzodioxane derivatives as alpha2C antagonists” (ORION CORPORATION, priority 2015, dated 2020).
Structures can show the parent of a compound that is named as a salt.

Legend:
[1] = target: T1, human alpha2A receptors (Homo sapiens, UniProt P08913); experiment: Determination of alpha2A antagonistic activity in vitro (FLIPR calcium assay, CHO cells); type: cell-based; conditions: for Kb: Kb calculated with the Cheng-Prusoff equation from IC50, adrenaline as agonist, CHO cells, human alpha2A, read-out: Alpha 2A Adrenaline Kb; for IC50: antagonism of adrenaline stimulation, CHO cells stably transfected with human alpha2A receptor and Gα16, intracellular calcium (FLIPR), read-out: Alpha 2A Adrenaline IC50
T1 construct: host or cells: CHO cells, cotransfected with pCEP-Gα16
T1 sequence (P08913 1-465): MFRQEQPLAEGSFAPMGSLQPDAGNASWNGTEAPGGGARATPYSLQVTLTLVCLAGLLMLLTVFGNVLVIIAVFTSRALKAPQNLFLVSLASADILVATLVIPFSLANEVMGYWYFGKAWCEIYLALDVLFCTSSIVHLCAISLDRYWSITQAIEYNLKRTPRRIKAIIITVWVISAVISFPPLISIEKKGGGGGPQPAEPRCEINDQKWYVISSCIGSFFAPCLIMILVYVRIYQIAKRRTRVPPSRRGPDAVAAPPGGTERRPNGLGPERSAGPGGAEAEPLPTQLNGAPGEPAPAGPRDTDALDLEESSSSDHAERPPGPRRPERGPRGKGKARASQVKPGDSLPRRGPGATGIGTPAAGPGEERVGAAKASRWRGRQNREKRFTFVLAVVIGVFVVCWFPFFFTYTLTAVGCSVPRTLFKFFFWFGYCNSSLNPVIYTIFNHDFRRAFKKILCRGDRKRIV
Procedure: (§1) EXPERIMENT 1: Determination of alpha2A and alpha2C Antagonistic Activity In Vitro
(§2) Chinese hamster ovary (CHO) cells stably transfected with human alpha2A or alpha2C receptors (University of Turku, Finland) were cotransfected with the expression vector pCEP-Gα16 (Molecular Devices, CA, USA) were used in this experiment. The cells were maintained at 37° C. in a 5% CO2/95% air atmosphere. The cells were cultured in HAM F-12 medium supplemented with 10% FCS, 25 mM HEPES, 100 IU/ml penicillin, 100 µg/ml streptomycin, 500 μg/ml geneticin and 240 μg/ml hygromycin B. The cells were subcultured twice weekly with 0.25% trypsin and 1 mM EDTA. The subculture ratio was 1:5-1:20. The growth medium was changed every 2 or 3 days. All cell culture reagents were from Gibco. The day before the experiment the cells were plated into black-walled, clear bottom 384-well plates at a density of 10,000 cells/well.
(§3) The growth medium was removed and the cells were incubated with the test compounds and the FLIPR Calcium 6 Assay reagent (Molecular Devices, CA, USA) for 2 h at 37° C. in dark. The test compounds (concentrations in cells 100 pM-10 μM) were dissolved in Probenecid-Ringer consisting of 150 mM NaCl, 3 mM KCl, 1.2 mM MgCl2, 1 mM CaCl2, 5 mM glucose, 20 mM HEPES and 2.5 mM probenecid (pH 7.4 adjusted with 1.0 M NaOH). The osmolarity was adjusted to 322 milliosmoles with Osmostat® OM-6020 osmometer (DIC Kyoto Daiichi Kagagu Co. Ltd, Japan). […] All experiments were performed at 37° C. For agonism measurements the test compounds dissolved in Probenecid-Ringer were applied by FLIPR Tetra at 15 s time point. In order to determine antagonism, the cells were stimulated either with 100 nM adrenaline or noradrenaline and the test compounds were added to the cells 2 h before the experiment with the FLIPR Calcium 6 Assay reagent. […] Typically, there were four replicates at each concentration and six different dose levels. For example, if the number of plates from which results were obtained was three, 72 (4*6*3) wells were thus measured to construct dose-response relationship. The samples were excited at 485 nm and emission was detected at 525 nm with a 515 nm cut-off filter. The minimum fluorescence value subtracted from the maximum value for each well was used in the calculations. ScreenWorks version 4.0 software was used for analyzing the results. Fitting of the antagonist dose-response results was performed with the free Hill equation and the IC50 values were fitted with IDBS XE software using model 200: y=(A+(B/(1+((x/C)^D)))), where A is the curve maximum, B the curve minimum and C equals the EC50 value. D is slope factor (Hill). Kb was calculated with the Cheng-Prusoff equation Kb=A/((B/C)+1), where A is the IC50 of antagonist, B the concentration of agonist and C the EC50 of the agonist.

[2] = target: T2, human alpha2C receptors (Homo sapiens, UniProt P18825); experiment: Determination of alpha2C antagonistic activity in vitro (FLIPR calcium assay, CHO cells); type: cell-based; conditions: for Kb: Kb calculated with the Cheng-Prusoff equation from IC50, adrenaline as agonist, CHO cells, human alpha2C, read-out: Alpha 2C Adrenaline Kb; for IC50: antagonism of adrenaline stimulation, CHO cells stably transfected with human alpha2C receptor and Gα16, intracellular calcium (FLIPR), read-out: Alpha 2C Adrenaline IC50
T2 construct: host or cells: CHO cells, cotransfected with pCEP-Gα16
T2 sequence (P18825 1-462): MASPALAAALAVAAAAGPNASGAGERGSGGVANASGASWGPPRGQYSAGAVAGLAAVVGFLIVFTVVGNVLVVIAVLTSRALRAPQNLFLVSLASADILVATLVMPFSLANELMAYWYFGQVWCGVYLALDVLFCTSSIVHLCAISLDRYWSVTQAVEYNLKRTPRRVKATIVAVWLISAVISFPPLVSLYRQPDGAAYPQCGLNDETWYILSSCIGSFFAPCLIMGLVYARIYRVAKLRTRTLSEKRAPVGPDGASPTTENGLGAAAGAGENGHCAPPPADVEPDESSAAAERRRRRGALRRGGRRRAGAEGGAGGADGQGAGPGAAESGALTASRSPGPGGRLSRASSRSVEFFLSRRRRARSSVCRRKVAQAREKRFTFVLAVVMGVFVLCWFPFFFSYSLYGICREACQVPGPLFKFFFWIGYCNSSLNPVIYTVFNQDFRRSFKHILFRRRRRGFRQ
Procedure: as §1, §2, §3

## CN(C)C(=O)c1nsnc1N1CCN(C[C@H]2COc3ccccc3O2)CC1 [Compound of example 34, (S)-4-(4-((2,3-Dihydrobenzo[b][1,4]dioxin-2-yl)methyl)piperazin-1-yl)-N,N-dimethyl-1,2,5-thiadiazole-3-carboxamide]
[1]
  Kb: > 449 nM
  IC50: > 10000 nM
[2]
  Kb: 0.92 nM
  IC50: 0.09 nM

## c1ccc2c(c1)OC[C@H](CN1CCN(c3nsc4cccnc34)CC1)O2 [Compound of example 36, (S)-3-(4-((2,3-Dihydrobenzo[b][1,4]dioxin-2-yl)methyl)piperazin-1-yl)isothiazolo[4,5-b]pyridine hydrochloride]
[1]
  Kb: 298 nM
  IC50: 6650 nM
[2]
  Kb: 135 nM
  IC50: 13.6 nM

## c1ccc(COc2ncccc2Nc2nsnc2N2CCN(C[C@H]3COc4ccccc4O3)CC2)cc1 [Compound of example 37, (S)—N-(2-(Benzyloxy)pyridin-3-yl)-4-(4-((2,3-dihydrobenzo[b][1,4]-dioxin-2-yl)methyl)piperazin-1-yl)-1,2,5-thiadiazol-3-amine hydrochloride]
[1]
  Kb: > 449 nM
  IC50: > 10000 nM
[2]
  Kb: 73.1 nM
  IC50: 7.36 nM

## Cc1cc(N2CCN(C[C@H]3COc4ccccc4O3)CC2)n(-c2ccccn2)n1 [Compound of example 38, (S)-1-((2,3-Dihydrobenzo[b][1,4]dioxin-2-yl)methyl)-4-(3-methyl-1-(pyridin-2-yl)-1H-pyrazol-5-yl)piperazine]
[1]
  Kb: 149 nM
  IC50: 3320 nM
[2]
  Kb: 2.28 nM
  IC50: 0.23 nM

## COc1cccc(-n2nc(C)cc2N2CCN(C[C@H]3COc4ccccc4O3)CC2)n1 [Compound of example 39, (S)-1-((2,3-Dihydrobenzo[b][1,4]dioxin-2-yl)methyl)-4-(1-(6-methoxypyridin-2-yl)-3-methyl-1H-pyrazol-5-yl)piperazine]
[1]
  Kb: 82 nM
  IC50: 1830 nM
[2]
  Kb: 0.29 nM
  IC50: 0.03 nM

## Cc1cccc(-n2nc(C)cc2N2CCN(C[C@H]3COc4ccccc4O3)CC2)n1 [Compound of example 40, (S)-1-((2,3-Dihydrobenzo[b][1,4]dioxin-2-yl)methyl)-4-(3-methyl-1-(6-methylpyridin-2-yl)-1H-pyrazol-5-yl)piperazine]
[1]
  Kb: 100 nM
  IC50: 2230 nM
[2]
  Kb: 2.57 nM
  IC50: 0.26 nM
